Experimental data taken from patent publication US12712053B2, “Determining the stability of a substance or substance mixture” (BIONORICA SE, priority 2022, dated 2026).
Where two headings read alike, the source gives them in different places.

Tests used:
HEK295 cells = conditions: for Main test: maximum Euclidian distance: NIR, plateau value of curve fit
Excerpt: The subject of the investigation was: • HEK295 cells, provided by Microbify, in a concentration of 2.2*10^5 cells/ml in medium, grown confluently, i.e. adherently grown cells that have formed a continuous monolayer/cell layer, in the NIR measuring vessels with transflectance stamp made of stainless steel from BrukerOptics • Use of nutrient medium DMEM (Dulbecco's Modified Eagle's Medium), with high glucose content, HEPES buffer, without phenol red indicator. Medium was purchased ready-to-use from ThermoFisher, catalog number 21063045, and mixed with 10% fetal calf serum (v/v) and 1% penicillin-streptomycin solution (v/v). • Cell culture for 48 hours before measurement directly in the measuring vessel • Addition of several concentrations of ethanol: 0% (control), 3%, 6% (each v/v). […] Before the experiment began, the cells were confluent, i.e. 100% viable • Measurement of cell changes via NIR over a period of […]
The measuring instrument used was a near-infrared spectroscopy device microPHAZIR GP (Thermo Fisher Scientific Inc.) with a wave number range: 6266 cm^−1 to 4172 cm^−1
Data pretreatment of the NIR spectra: No special pretreatment was carried out, spectra were processed directly.
The following calculation parameters were chosen: Euclidean distance
The cells were removed from the incubator and treated with a chemical stress factor (ethanol) at the concentrations mentioned. Three independent replicates were prepared with 0%, 3% and 6% ethanol and in a narrow measured at intervals of time (every 2 minutes) over a total period of 6 hours via NIR.
From the measured spectra, the Euclidean distances were calculated according to the method of the invention, averaged per measurement time and the fitting of kinetic curves (cf. Application example 3; identical procedure). […] The data points are the mean values of 3 independent replicates, each measured 3 times, thus there are 9 measurement points per point. The error bars are the standard error of the mean. Also shown are the determination points for Km (time at which 50% of the plateau value was reached), K90 (time at which 90% of the plateau value was reached), and K95 (time at which 95% of the plateau value was reached).

in vitro = conditions: human, HEK295 cells

With CCO [ethanol] the “Km (time at which 50% of the plateau value was reached)” value (HEK295 cells; 3% EtOH) was ~ 13 min, the “Main test: maximum Euclidian distance” value (HEK295 cells; 3% ethanol (v/v)) was 0.194 and the “Km (time at which 50% of the plateau value was reached)” value (HEK295 cells; 6% EtOH) was ~ 11 min. The “Main test: maximum Euclidian distance” value (HEK295 cells; 6% ethanol (v/v)) was 0.272, the viability at 2.5 % ethanol (in vitro) was 68% and the viability at 3 % ethanol (in vitro) was 70.8%. The viability at 5 % ethanol (in vitro) was 65.5%, the viability at 6 % ethanol (in vitro) was 41.4% and the viability at 7.5 % ethanol (in vitro) was 22.5%. For the same molecule, the viability at 10 % ethanol (in vitro) was 0%.
